Experimental data published in ChEMBL document CHEMBL1130655, “Nonpeptide oxytocin antagonists: potent, orally bioavailable analogs of L-371,257 containing a 1-R-(pyridyl)ethyl ether terminus” (Bioorg Med Chem Lett, 1998).

What was measured:
Oxytocin receptor [1] = molecular target: T1, Oxytocin receptor (Rattus norvegicus, UniProt P70536); experiment: Binding affinity against oxytocin receptor (rOTr) in DES pretreated rat uterine
T1 sequence (P70536 whole entry): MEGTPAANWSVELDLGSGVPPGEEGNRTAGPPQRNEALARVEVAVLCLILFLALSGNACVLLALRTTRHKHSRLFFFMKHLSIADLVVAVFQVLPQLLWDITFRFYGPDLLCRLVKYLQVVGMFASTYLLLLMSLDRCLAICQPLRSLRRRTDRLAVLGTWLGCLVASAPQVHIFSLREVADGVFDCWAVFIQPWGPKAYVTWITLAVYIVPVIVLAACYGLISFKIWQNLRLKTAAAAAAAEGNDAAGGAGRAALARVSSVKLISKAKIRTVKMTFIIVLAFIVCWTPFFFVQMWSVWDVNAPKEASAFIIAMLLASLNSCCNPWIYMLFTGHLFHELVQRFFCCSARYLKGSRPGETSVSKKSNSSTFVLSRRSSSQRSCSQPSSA

Oxytocin receptor [2] = molecular target: T2, Oxytocin receptor (Homo sapiens, UniProt P30559); experiment: Binding affinity against cloned human oxytocin receptor from human embryonic kidney cells; type: cell-based
T2 sequence (P30559 whole entry): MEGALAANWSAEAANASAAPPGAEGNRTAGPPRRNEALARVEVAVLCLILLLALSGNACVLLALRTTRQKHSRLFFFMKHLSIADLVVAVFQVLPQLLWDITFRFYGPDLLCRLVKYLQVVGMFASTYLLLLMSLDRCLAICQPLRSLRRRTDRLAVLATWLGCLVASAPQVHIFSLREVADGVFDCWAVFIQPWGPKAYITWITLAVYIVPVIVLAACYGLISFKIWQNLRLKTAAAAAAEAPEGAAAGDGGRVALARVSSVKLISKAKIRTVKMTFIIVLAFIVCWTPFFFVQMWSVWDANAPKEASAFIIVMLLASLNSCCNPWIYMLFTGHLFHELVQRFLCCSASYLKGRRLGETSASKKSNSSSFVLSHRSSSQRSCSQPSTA

[3] = Oral bioavailability in rat; type: ADME, organism-based; settings: in vivo
[4] = Half life period after 3 mg/kg iv administration in the rat; type: ADME, organism-based; set-up: dose 3 mg/kg, route intravenous; settings: in vivo
Rattus norvegicus [5] = experiment: Maximum plasma concentration after 20 mg/kg oral administration in rat; type: ADME, organism-based; set-up: dose 20 mg/kg, route oral; settings: in vivo
Rattus norvegicus [6] = organism: Rattus norvegicus; experiment: Compound was evaluated for its ability to antagonize rat OT-induced uterine contractile response in the vehicle treated group by 50%; type: functional
[7] = Half life period after 3 mg/kg iv administration in rat; type: ADME, organism-based; set-up: dose 3 mg/kg, route intravenous; settings: in vivo

SMILES	Ki (Oxytocin receptor [2])	AD50 (Rattus norvegicus [6])	other results
COc1ccc(C(=O)N2CCC(N3C(=O)OCc4ccccc43)CC2)c(OC)c1	87 nM		Ki (Oxytocin receptor [1]): 120 nM
COc1cc(OC(C)C)ccc1C(=O)N1CCC(N2C(=O)OCc3ccccc32)CC1	17 nM		
CCC(Oc1ccc(C(=O)N2CCC(N3C(=O)OCc4ccccc43)CC2)c(OC)c1)c1ccccc1 (stereo not given)	58 nM		
COc1cc(OC2CCN(C(C)=O)CC2)ccc1C(=O)N1CCC(N2C(=O)OCc3ccccc32)CC1	9.3 nM	0.55 mg/kg	bioavailability [3]: 39%; half-life [4]: ~30 min; Cmax (Rattus norvegicus [5]): 3.3 uM equiv
COc1cc(OC(C)c2ccccc2)ccc1C(=O)N1CCC(N2C(=O)OCc3ccccc32)CC1 (stereo not given)			half-life [7]: < 30 min
CCOc1ccc(C(=O)N2CCC(N3C(=O)OCc4ccccc43)CC2)c(OC)c1	15 nM		
COc1cc(OC(C)c2cccnc2)ccc1C(=O)N1CCC(N2C(=O)OCc3ccccc32)CC1 (stereo not given)		1.2 mg/kg	
COc1cc(O[C@H](C)c2cc[n+]([O-])cc2)c(F)cc1C(=O)N1CCC(N2C(=O)OCc3ccccc32)CC1	7.34 nM	0.78 mg/kg	Ki (Oxytocin receptor [1]): 9.9 nM
